Selectivity ratio, IC50 and IC80 data for 17 compounds are collected here from ChEMBL document CHEMBL3044612, “Design, synthesis and biological evaluation of some novel 3-cinnamoyl-4-hydroxy-2H-chromen-2-ones as antimalarial agents” (Med Chem Res, 2012).

pIC50: −log10 of the molar value. Converted amounts (≈) assume the structure as drawn. Where only a bound is given, the exact number is not on record here.

Data set [1] can be described thus: Selectivity index, ratio of IC50 for human K562 cells to IC50 for chloroquine-resistant Plasmodium falciparum W2. The class given is toxicity, cell-based. The settings on record: read-out: Ratio IC50.
Data set [2] in a line: Selectivity index, ratio of IC50 for human K562 cells to IC80 for chloroquine-sensitive Plasmodium falciparum 3D7. It counts as toxicity, cell-based. The conditions noted are these: read-out: Selectivity Index.
A short description of data set [3]: Selectivity index, ratio of IC50 for human K562 cells to IC50 for chloroquine-sensitive Plasmodium falciparum 3D7. The class given is toxicity, cell-based. The settings on record: read-out: Ratio IC50.
For data set [4], the system named is K562. Briefly: Cytotoxicity against Homo sapiens (human) K562 cells by Sulphorhodamine B assay. It counts as cell-based. (Sulforhodamine B stains cellular protein and so reports cell mass.)
Data set [5] has as its system Plasmodium falciparum. The experiment in a line: Antimalarial activity against chloroquine-resistant Plasmodium falciparum W2 by in vitro cell culture method. It counts as functional, organism-based.
Data set [6] deals with Plasmodium falciparum. The experiment in a line: Antimalarial activity against chloroquine-sensitive Plasmodium falciparum 3D7 by in vitro cell culture method. The class given is functional, organism-based.
The test system of data set [7] is Plasmodium falciparum. The experiment in a line: Antimalarial activity against Plasmodium falciparum by [3H]-hypoxanthine incorporation assay. The class given is functional, organism-based.

A word on the IC50: it is the concentration that inhibits the measured activity by half. Low readings indicate greater potency, high ones weaker potency. Broadly, the IC80 is the concentration at which the effect reaches the 80% level. The low end stands for an effect from little substance, the high end for a need for much substance. With `O=C(/C=C/c1ccc([N+](=O)[O-])cc1)c1c(O)c2ccccc2oc1=O`, the results for the selectivity ratio in data set [1], in data set [2] and in data set [3] were 38.5, 22 and 49.7, respectively. For the same compound, the IC50 was 154 µg/mL (≈ 457 µM) in data set [4], 4 µg/mL (≈ 11.9 µM) in data set [5] and 3.1 µg/mL (≈ 9.19 µM) in data set [6]. This compound also registered an IC80 in data set [6] of 7 µg/mL (≈ 20.8 µM).

Regarding `COc1cc(/C=C/C(=O)c2c(O)c3ccccc3oc2=O)cc(OC)c1OC`, the IC50 in data set [4] was 103 µg/mL (≈ 270 µM); in data set [6], more than 50 µg/mL.

In the case of `CN(C)c1ccc(/C=C/C(=O)c2c(O)c3ccccc3oc2=O)cc1`, the selectivity ratio in data set [1] stood at 2.29; in data set [2], 7.08; in data set [3] it was 9.1. For the same compound, the IC50 in data set [4] turned out to be 156 µg/mL (≈ 467 µM); in data set [5], 68.2 µg/mL (≈ 203 µM); in data set [6], 17.2 µg/mL (≈ 51.3 µM). This compound also yielded an IC80 in data set [6] of 22.1 µg/mL (≈ 65.9 µM).

For `O=C(/C=C/c1ccccc1)c1c(O)c2ccccc2oc1=O`, the selectivity ratio in data set [1] was found to be 9.02; in data set [2] it was 1.76; in data set [3] it was 4.49. Moreover, the IC50 was determined as 99.2 µg/mL (≈ 339 µM) in data set [4], 11 µg/mL (≈ 37.6 µM) in data set [5] and 22.1 µg/mL (≈ 75.6 µM) in data set [6]. Also, the 80% effect level in data set [6] (IC80) was put at 56.3 µg/mL (≈ 193 µM).

For the compound `COc1ccc(/C=C/C(=O)c2c(O)c3ccccc3oc2=O)cc1`, the IC50 in data set [5] is 35.8 µg/mL (≈ 111 µM). In data set [6], inhibition was half-maximal at 7.2 µg/mL (≈ 22.3 µM) (IC50) and it took 6.2 µg/mL (≈ 19.2 µM) to reach the 80% level (IC80).

`Cc1ccc(/C=C/C(=O)c2c(O)c3ccccc3oc2=O)cc1`: in data set [5], half-maximal inhibition (IC50) required 5.1 µg/mL (≈ 16.6 µM). In data set [6], the IC50 was found to be 6.1 µg/mL (≈ 19.9 µM) and the 80% effect level (IC80) was put at 15 µg/mL (≈ 49 µM).

Consider `COc1ccc(/C=C/C(=O)c2c(O)c3ccccc3oc2=O)cc1OC`, for which the values for the selectivity ratio in data set [1], in data set [2] and in data set [3] were 3.25, 4.73 and 11.5, respectively. For the same compound, the IC50 in data set [4] is 71.4 µg/mL (≈ 203 µM); in data set [5], 22 µg/mL (≈ 62.4 µM); in data set [6], 6.2 µg/mL (≈ 17.6 µM). The compound further gave an IC80 in data set [6] of 15.1 µg/mL (≈ 42.9 µM).

For `COc1ccc(/C=C/C(=O)c2c(O)c3ccccc3oc2=O)c(OC)c1OC`, the selectivity ratio worked out at 0.83 in data set [1], 2.3 in data set [2] and 5.48 in data set [3]. Further, the IC50 worked out at 46.6 µg/mL (≈ 122 µM) in data set [4], 56.1 µg/mL (≈ 147 µM) in data set [5] and 8.5 µg/mL (≈ 22.2 µM) in data set [6]. Also, the 80% effect level in data set [6] (IC80) was put at 20.3 µg/mL (≈ 53.1 µM).

Take `O=C(/C=C/c1ccco1)c1c(O)c2ccccc2oc1=O`: in data set [6], the IC50 is more than 50 µg/mL.

With `O=C(/C=C/c1ccccc1Cl)c1c(O)c2ccccc2oc1=O`, the IC50 in data set [4] is 124 µg/mL (≈ 378 µM); in data set [6] it was more than 50 µg/mL.

With `O=C(/C=C/c1cccc(Cl)c1)c1c(O)c2ccccc2oc1=O`, the midpoint of inhibition in data set [5], the IC50, lay at 6.2 µg/mL (≈ 19 µM). For the same compound, in data set [6], half-maximal inhibition (IC50) was put at 4.2 µg/mL (≈ 12.9 µM) and it took 9 µg/mL (≈ 27.5 µM) to reach the 80% level (IC80).

For the compound `O=C(/C=C/c1ccc(Cl)cc1)c1c(O)c2ccccc2oc1=O`, the selectivity ratio in data set [1] was found to be 4.94; in data set [2], 2.26; in data set [3], 6.29. In addition, the IC50 was found to be 32.1 µg/mL (≈ 98.2 µM) in data set [4], 6.5 µg/mL (≈ 19.9 µM) in data set [5] and 5.1 µg/mL (≈ 15.6 µM) in data set [6]. The compound further showed an IC80 in data set [6] of 14.2 µg/mL (≈ 43.5 µM).

Regarding `O=C(/C=C/c1ccc(Cl)cc1Cl)c1c(O)c2ccccc2oc1=O`, the IC50 in data set [4] was 149 µg/mL (≈ 413 µM); in data set [6], more than 50 µg/mL.

On to `O=C(/C=C/c1cccc([N+](=O)[O-])c1)c1c(O)c2ccccc2oc1=O`, for which the selectivity ratio in data set [1] is 2.8; in data set [2] it was 6.02; in data set [3], 9.72. Moreover, the IC50 was found to be 152 µg/mL (≈ 450 µM) in data set [4], 54.1 µg/mL (≈ 160 µM) in data set [5] and 15.6 µg/mL (≈ 46.3 µM) in data set [6]. The 80% effect concentration (IC80) in data set [6] amounted to 25.2 µg/mL (≈ 74.7 µM).

Turning to `COc1cc(/C=C/C(=O)c2c(O)c3ccccc3oc2=O)ccc1O`, the values for the IC50 in data set [5] and in data set [6] were 61.3 µg/mL (≈ 181 µM) and 11.2 µg/mL (≈ 33.1 µM), respectively. The IC80 in data set [6] was 27.2 µg/mL (≈ 80.4 µM).

In data set [4], `CCN(CC)CCCC(C)Nc1ccnc2cc(Cl)ccc12` (stereo unspecified) [CHLOROQUINE] gave an IC50 of 43.8 µg/mL (≈ 137 µM). In data set [6], this compound yielded an IC80 of 0.0401 µg/mL (≈ 0.125 µM).

As usually defined, the pIC50 is the IC50 on a negative log10 scale, so that one unit is a factor of ten. Low values mean a high IC50, high ones a low IC50. In turn, `O=c1ccc2ccc(O)c(O)c2o1` [DAPHNETIN] had a pIC50 in data set [7] of 4.60.
